The target in test [1] is T1, Angiotensin II type 1 receptor (AT1R) (Homo sapiens, UniProt P30556).
T1 sequence (P30556 1-359): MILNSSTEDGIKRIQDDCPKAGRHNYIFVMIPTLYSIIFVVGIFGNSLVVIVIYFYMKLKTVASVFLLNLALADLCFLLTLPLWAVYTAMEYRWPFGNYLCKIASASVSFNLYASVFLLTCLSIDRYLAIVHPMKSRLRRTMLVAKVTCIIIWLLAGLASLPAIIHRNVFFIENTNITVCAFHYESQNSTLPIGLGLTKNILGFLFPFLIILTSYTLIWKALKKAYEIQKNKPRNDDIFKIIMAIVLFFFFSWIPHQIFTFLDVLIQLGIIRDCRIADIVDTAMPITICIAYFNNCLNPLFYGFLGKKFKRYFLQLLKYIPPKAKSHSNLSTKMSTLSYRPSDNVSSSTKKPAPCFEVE
Briefly: TGF-α shedding assay of canonical G protein signaling at AT1R. It is filed as cell-based. As to conditions: four Gα-family proteins tested.

Test [2] deals with T2, V2R:β-arrestin-2 complexes (Homo sapiens, UniProt P30518).
T2 construct: 3xHA (N); expressed in transfected cells; host or cells: HEK293T
Briefly: Split luciferase V2R-LgBiT:β-arrestin-2-smBiT association. As to conditions: V2R or β2AR. It is filed as cell-based. How it is done:
(§1) HEK293T cells seeded in 6-well plates were co-transfected with 500 ng of smBiT tagged β-arrestin-2, and either 250 ng of LgBiT tagged receptor or 2000 ng of untagged receptor and varying concentrations of LgBiT Gα protein expression vector (most experiments were conducted between 50-200 ng of Gα plasmid) or 2000 ng of mKO tagged β-arrestin-2 and 500 ng of smBiT tagged V2R using a calcium phosphate protocol. Twenty-four hours post-transfection, cells were plated onto clear bottom, white-walled 96-well plates at 50,000-100,000 cells/well in “BRET media”—clear minimum essential medium (GIBCO) supplemented with 2% FBS, 10 mM HEPES, 1×GLUTAMAX™, and 1× Anti-Anti (GIBCO). […] For luminescence split luciferase studies, plates were read with a BioTek SYNERGY™ Neo2 plate reader set at 37° C. with a 485 nm emission filter. […] For split luciferase luminescence experiments, plates were read both before and after ligand treatment to calculate Δnet change in luminescence and subsequently normalized to vehicle treatment. For complex BRET experiments, plates were read on a Berthold Mithras LB940 using pre-warmed media and instrument at 37° C. using a standard Rluc emissions filter (480 nm) with a custom mKO 542 nm long-pass emission filter (Chroma Technology Co., Bellows Falls, Vt.). The BRET ratio was calculated by dividing the mKO signal by the luciferase signal.

The subject of test [3] is human pulmonary arterial smooth muscle cells (PASMCs). Briefly: Wound-healing migration assay, primary human cells. It is filed as cell-based. How it is done:
Human pulmonary arterial smooth muscle cells (PASMCs) were isolated from human lungs from a de-identified health donor (International Institute for the Advancement of Medicine, Edison, N.J.) with Institutional Review Board approval. Human PASMCs were seeded into 24-well plates at a density of 1.5×10^4 cells per well in Human Smooth Muscle Cell Basal Medium supplemented with Human SMC Growth Supplement (Cell Application, Inc.). At 30% confluency, cells were transfected with 50 ng of control or β-arrestin-1 and β-arrestin-2 ON […]™ siRNA pools (Dharmacon, Inc.). When the cells reached 100% confluency, they were serum starved for 4 hours with 2 hrs of PTX (200 ng/mL) treatment. Scratches were made using small pipette tips. Cells were washed using DPBS and stimulated with basal smooth muscle cell medium containing 1 μM Angiotensin-II (Millipore Sigma) or 10 μM TRV120023 (Genscript USA Inc.). The wound closure was monitored using live-cell station Zeiss Axio Observer microscope (Carl Zeiss, Thornwood, N.Y.). The images were captured in real-time at 0 hour and for every hour until 16 hours. The initial edges of the scratch at 0 hour time point were marked and migrated distance 12-16 hrs afterwards was measured using METAMORPH® Premier software (Molecular Devices, San Jose, Calif.) at the Duke Light Microscopy Core Facility (Durham, N.C.).

For test [4], the system named is HEK 293 cells stably expressing AT1R. Put plainly: Wound-healing migration assay, immortalized cells. It is filed as cell-based, human. Conditions: PTX pretreatment 200 ng/mL. How it is done: HEK 293T cells stably expressing the AT1R were utilized. Briefly, 70 μl of cell suspension at a concentration of 5×10^5 cells per mL was applied into each well of silicone inserts (Ibidi, Martinsried, Germany) on 24 well plate, and after 24 hrs incubation, the inserts were removed to create a wound field. The cells were incubated additionally for 12 hrs with 1 μM of TRV120023 and visualized with a Zeiss Axio Observer microscope (Carl Zeiss, Thornwood, N.Y.). Wound healing was then analyzed using ImageJ (NIH, Bethesda, Md.) wound healing tool macros.

For another test, the system named is ERK1/2 phosphorylation. Briefly: Phospho-ERK/total ERK immunoblot in 'triple G' HEK 293 cells overexpressing V2R. It is filed as cell-based, human. As to conditions: agonist treated. How it is done: Cells were serum starved for at least four hours, stimulated with the indicated ligand, subsequently washed 1× with ice-cold PBS, lysed in ice-cold RIPA buffer containing phosphatase and protease inhibitors (Phos-STOP (Roche), Complete EDTA free (Sigma)) and rotated for forty-five minutes, and cleared of insoluble debris by centrifugation at >12,000×g (4° C., 15 minutes), after which the supernatant was collected. Protein was resolved on SDS-10% polyacrylamide gels, transferred to nitrocellulose membranes, and immunoblotted with the indicated primary antibody overnight (4° C.). Phospho-ERK (Cell Signaling Technology, #9106) and total ERK (Millipore #06-182) were used to assess ERK activation. A1-CT antibody that recognizes both isoforms of β-arrestin was utilized, with protein loading assessed by alpha-tubulin (Sigma #T6074). Galpha i-1 (13533, Santa Cruz Biotechnology), Galpha q/11/14 (365906, Santa Cruz Biotechnology), Galpha 12 (515445, Santa Cruz Biotechnology), Galpha 13 (293424, Santa Cruz Biotechnology), Galpha s/olf (55545, Santa Cruz Biotechnology) antibodies were used to verify ‘Δ3G’ HEK 293 cells.
Horseradish peroxidase-conjugated polyclonal mouse anti-rabbit-IgG or anti-mouse-IgG were used as secondary antibodies. […] For quantification, phospho-protein signal was normalized to total protein signal using Image Lab (Bio-Rad) within the same blot.
Background: In western blotting, separated proteins are transferred to a membrane and probed.

Test [5] deals with Gαi:β-arrestin-2 complexes. Put plainly: Split luciferase Gαi-LgBiT:β-arrestin-2-smBiT complex formation in cells overexpressing V2R. It is filed as cell-based, human. How it is done:
as §1

Results on 3 compounds are retold here after US11360096B2, “Complex BRET technique for measuring biological interactions” (DUKE UNIVERSITY, priority 2019, dated 2022).

Consider Angiotensin II [AngII], for which the “Canonical G protein signaling at AT1R” value in test [1] was “canonically signals through both Gαq and Gαi”.

As to pertussis toxin, the “Effect of pertussis toxin pretreatment on β-arrestin recruitment to receptor” value in test [2] was “did not affect β-arrestin recruitment to either the V2R or β2AR”. For the same compound, the “Pertussis toxin sensitivity of migration towards TRV120023” value in test [3] is “pertussis toxin sensitive”. Moreover, the “Reduction of TRV120023-mediated migration by pertussis toxin pretreatment” value in test [4] is listed as approximately 50%. In the test on ERK1/2 phosphorylation, the “ERK phosphorylation after pertussis toxin pretreatment” value is “abrogated, but did not eliminate, ERK phosphorylation”. Moreover, in test [5] (pertussis toxin pretreatment), the “Sensitivity of the Gαi:β-arrestin interaction to pertussis toxin” value is “partially sensitive to pertussis toxin”.

With `CCOc1ccc2c(c1)C1(CCC(OCCN3CCOCC3)CC1)C(=O)N2S(=O)(=O)c1ccc(C(=O)NC(C)(C)C)cc1OC` (stereo not shown) [SR121463], in test [5] (HEK 293 cells overexpressing V2R, pretreatment 30 min, 10 uM), the “Gαi:β-arrestin complex formation after antagonist pretreatment” value was “prevented formation of Gαi:β-arrestin complexes”.
